Reference: patent publication US6737383B1, “Herbicidal oxadiazolidines” (priority 1999, dated 2004)

What was measured:
field violet = test: Test E field violet; assay type: in vivo, Viola arvensis; conditions: Postemergence
How it was run: (§1)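 For postemergence, application to 1- to 4-leaf plants growing in a 60:40 sandy loam–potting mix substrate. Formulation: non-phytotoxic solvent mixture plus surfactant. Untreated controls served as the reference for the visual rating after ~21–28 days.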

jointed goatgrass = test: Test E jointed goatgrass; assay type: in vivo, Aegilops cylindrica; conditions: Preemergence
large crabgrass = test: Test C postemergence large crabgrass; assay type: in vivo, Digitaria sanguinalis; conditions: 0 to 100 scale, 0 no effect, 100 complete control
How it was run: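 Foliar postemergence treatment of greenhouse plants grown in 60:40 sandy loam:potting mix; compounds delivered in non-phytotoxic solvent with surfactant. Evaluation is visual, 0–100, after ~14–21 d.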

winter barley = test: Test E winter barley; assay type: in vivo, Hordeum vulgare; conditions: Postemergence
How it was run: as §1

spring barley = test: Test E spring barley; assay type: in vivo, Hordeum vulgare; conditions: Preemergence
hairy beggarticks = test: Test C postemergence hairy beggarticks; assay type: in vivo, Bidens pilosa; conditions: 0 to 100 scale, 0 no effect, 100 complete control
Procedure: (§2) Compounds evaluated in this test were formulated in a non-phytotoxic solvent mixture which included a surfactant and applied to plants that were grown for various periods of time before treatment (postemergence application). A mixture of sandy loam soil and greenhouse potting mix in a 60:40 ratio was used for the postemergence test.
(§3) Plantings of these crops and weed species were adjusted to produce plants of appropriate size for the postemergence test. All plant species were grown using normal greenhouse practices. Crop and weed species include arrowleaf sida (Sida rhombifolia), barnyardgrass (Echinochloa crus-galli), cocklebur (Xanthium strumarium), common ragweed (Ambrosia elatior), corn (Zea mays), cotton (Gossypium hirsutum), eastern black nightshade (Solanum ptycanthum), fall panicum (Panicum dichotomiflorum), field bindweed (Convolvulus arvensis), giant foxtail (Setaria faberii), hairy beggarticks (Bidens pilosa), ivyleaf morningglory (Ipomoea hederacea), johnsongrass (Sorghum halepense), ladysthumb smartweed (Polygonum persicaria), lambsquarters (Chenopodium album), large crabgrass (Digitaria sanguinalis), purple nutsedge (Cyperus rotundus), redroot pigweed (Amaranthus retroflexus), soybean (Glycine max), surinam grass (Brachiaria decumbens), velvetleaf (Abutilon theophrasti) and wild poinsettia (Euphorbia heterophylla).
(§4) Treated plants and untreated controls were maintained in a greenhouse for approximately 14, to 21 days, after which all treated plants were compared to untreated controls and visually evaluated. Plant response ratings, summarized in Table C, were based upon a 0 to 100 scale where 0 was no effect and 100 was complete control. A dash response (−) means no test result.

wild buckwheat = test: Test E wild buckwheat; assay type: in vivo, Polygonum convolvulus; conditions: Postemergence
Procedure: as §2, with “in the 1- to 4-leaf stage” for “grown for various periods of time before treatment”
(§5) Plantings of these crops and weed species were adjusted to produce plants of appropriate size for the postemergence test. All plant species were grown using normal greenhouse practices. Crop and weed species include annual bluegrass (Poa annua), blackgrass (Alopecurus myosuroides), black nightshade (Solanum nigra), chickweed (Stellaria media), common poppy (Papaver rhoeas), deadnettle (Lamium amplexicaule), downy brome (Bromus tectorum), field violet (Viola arvensis), galium (Galium aparine), green foxtail (Setaria viridis), Italian ryegrass (Lolium multiflorum), jointed goatgrass (Aegilops cylindrica), kochia (Kochia scoparia), lambsquarters (Chenopodium album), littleseed canarygrass (Phalaris minor), rape (Brassica napus), redroot pigweed (Amaranthus retroflexus), Russian thistle (Salsola kali), scentless chamomile (Matricaria inodora), spring barley (Hordeum vulgare), sugar beet (Beta vulgaris), sunflower (Helianthus annuus), ivyleaf speedwell (Veronica hederaefolia), spring wheat (Triticum aestivum), winter wheat (Triticum aestivum), wild buckwheat (Polygonum convolvulus), wild mustard (Sinapis arvensis), wild oat (Avena fatua), windgrass (Apera spica-venti) and winter barley (Hordeum vulgare).
(§6) Treated plants and untreated controls were maintained in a greenhouse for approximately 21 to 28 days, after which all treated plants were compared to untreated controls and visually evaluated. […] A dash response (-) means no test result.

wild mustard = test: Test E wild mustard; assay type: in vivo, Sinapis arvensis; conditions: Postemergence
Procedure: […] A mixture of sandy loam soil and greenhouse potting mix in a 60:40 ratio was used for the postemergence test.
as §5, §6

spring wheat [1] = test: Test E spring wheat; assay type: in vivo, Triticum aestivum; conditions: Preemergence
common ragweed = test: Test C postemergence common ragweed; assay type: in vivo, Ambrosia elatior; conditions: 0 to 100 scale, 0 no effect, 100 complete control
Procedure: as §2, §3, §4

Italian ryegrass = test: Test E Italian ryegrass; assay type: in vivo, Lolium multiflorum; conditions: Postemergence
How it was run: as §1

cotton = test: Test C postemergence cotton; assay type: in vivo, Gossypium hirsutum; conditions: 0 to 100 scale, 0 no effect, 100 complete control
Procedure: as §2, §3, §4

kochia = test: Test E kochia; assay type: in vivo, Kochia scoparia; conditions: Preemergence
redroot pigweed = test: Test E redroot pigweed; assay type: in vivo, Amaranthus retroflexus; conditions: Postemergence
Procedure: as §2, with “in the 1- to 4-leaf stage” for “grown for various periods of time before treatment”
as §5, §6

downy brome = test: Test E downy brome; assay type: in vivo, Bromus tectorum; conditions: Postemergence; for Plant response rating, Downy brome: 0 to 100 scale; for Plant response rating, Downy brortie: Rate 250 g/ha, 0 to 100 scale (0 no effect, 100 complete control)
Procedure: as §2, with “in the 1- to 4-leaf stage” for “grown for various periods of time before treatment”
as §5, §6

spring wheat [2] = test: Test E spring wheat; assay type: in vivo, Triticum aestivum; conditions: Postemergence
Procedure: as §2, with “in the 1- to 4-leaf stage” for “grown for various periods of time before treatment”
as §5, §6

[3] = Rate 250 g/ha, 0 to 100 scale (0 no effect, 100 complete control)
[4] = Rate 62 g/ha, 0 to 100 scale, 0 no effect, 100 complete control
[5] = Rate 125 g/ha, 0 to 100 scale (0 no effect, 100 complete control)
[6] = Rate 500 g/ha, 0 to 100 scale, 0 no effect, 100 complete control
[7] = Rate 500 g/ha, 0 to 100 scale where 0 is no effect and 100 is complete control

CCn1c(=O)on(C(=O)N(c2ccc(F)cc2)C(C)C)c1=O [Compound 107]
25: Plant response rating, Field violet (field violet; Rate 125 g/ha, 0 to 100 scale)
5: Plant response rating, Barley (winter) (winter barley; Rate 62 g/ha, 0 to 100 scale) | Plant response rating, Barley (winter) (winter barley; Rate 125 g/ha, 0 to 100 scale) | Plant response rating H. beggarticks (hairy beggarticks; Rate 140 g/ha) | Plant response rating, Wild mustard (wild mustard; Rate 62 g/ha, 0 to 100 scale) | Plant response rating, Spring Wheat (spring wheat [2]; Rate 125 g/ha, 0 to 100 scale)
10: Plant response rating, Barley (winter) (winter barley; [3]) | Plant response rating, Wild buckwheat (wild buckwheat; [3]) | Plant response rating, Redroot pigweed (redroot pigweed; Rate 125 g/ha, 0 to 100 scale) | Plant response rating, Downy brome (downy brome; Rate 125 g/ha) | Plant response rating, Spring Wheat (spring wheat [2]; [3])
90: Plant response rating, Wild mustard (wild mustard; Rate 125 g/ha, 0 to 100 scale) | Plant response rating Cotton (cotton; Rate 1120 g/ha)
30: Plant response rating, Spring Barley (spring barley; [4]) | Plant response rating, I. Ryegrass (Italian ryegrass; [3])
45: Plant response rating Cotton (cotton; Rate 140 g/ha)
70: Plant response rating Large crabgrass (large crabgrass; Rate 140 g/ha) | Plant response rating, Spring Barley (spring barley; [5]) | Plant response rating, Spring Barley (spring barley; Rate 250 g/ha, 0 to 100 scale) | Plant response rating H. beggarticks (hairy beggarticks; Rate 560 g/ha)
60: Plant response rating H. beggarticks (hairy beggarticks; Rate 280 g/ha) | Plant response rating, Spring Wheat (spring wheat [1]; [4]) | Plant response rating Cotton (cotton; Rate 280 g/ha) | Plant response rating, Kochia (kochia; [5])
0: Plant response rating, Field violet (field violet; Rate 62 g/ha, 0 to 100 scale) | Plant response rating, Field violet (field violet; [3]) | Plant response rating, Wild buckwheat (wild buckwheat; Rate 62 g/ha, 0 to 100 scale) | Plant response rating, Wild buckwheat (wild buckwheat; Rate 125 g/ha, 0 to 100 scale) | Plant response rating Common ragweed (common ragweed; Rate 140 g/ha) | Plant response rating, I. Ryegrass (Italian ryegrass; Rate 62 g/ha, 0 to 100 scale) | Plant response rating, Downy brome (downy brome; Rate 62 g/ha) | Plant response rating, Downy brortie (downy brome) | Plant response rating, Spring Wheat (spring wheat [2]; Rate 62 g/ha, 0 to 100 scale)
95: Plant response rating Large crabgrass (large crabgrass; Rate 560 g/ha) | Plant response rating Large crabgrass (large crabgrass; Rate 1120 g/ha) | Plant response rating H. beggarticks (hairy beggarticks; Rate 1120 g/ha)
75: Plant response rating, Spring Wheat (spring wheat [1]; [5])
80: Plant response rating Cotton (cotton; Rate 560 g/ha) | Plant response rating, Kochia (kochia; Rate 250 g/ha, 0 to 100 scale)
85: Plant response rating Large crabgrass (large crabgrass; Rate 280 g/ha) | Plant response rating, Spring Wheat (spring wheat [1]; Rate 250 g/ha, 0 to 100 scale)
50: Plant response rating, Jointed goatgra (jointed goatgrass; [5]) | Plant response rating, Jointed goatgra (jointed goatgrass; Rate 250 g/ha, 0 to 100 scale) | Plant response rating Common ragweed (common ragweed; Rate 280 g/ha) | Plant response rating Common ragweed (common ragweed; Rate 560 g/ha) | Plant response rating Common ragweed (common ragweed; Rate 1120 g/ha) | Plant response rating, I. Ryegrass (Italian ryegrass; Rate 125 g/ha, 0 to 100 scale) | Plant response rating, Kochia (kochia; [4])
20: Plant response rating, Redroot pigweed (redroot pigweed; Rate 62 g/ha, 0 to 100 scale) | Plant response rating, Redroot pigweed (redroot pigweed; [3])
40: Plant response rating, Jointed goatgra (jointed goatgrass; [4]) | Plant response rating, Wild mustard (wild mustard; [3])

CCn1c(=O)on(C(=O)N(c2ccc(F)cc2F)C(C)C)c1=O [Compound 116]
20: Plant response rating, Wild mustard (wild mustard; Rate 125 g/ha, 0 to 100 scale)
50: Plant response rating, I. Ryegrass (Italian ryegrass; Rate 125 g/ha, 0 to 100 scale) | Plant response rating Cotton (cotton; Rate 280 g/ha) | Plant response rating Cotton (cotton; Rate 560 g/ha)
100: Plant response rating, Jointed goatgra (jointed goatgrass; Rate 250 g/ha, 0 to 100 scale) | Plant response rating, Spring Barley (spring barley; [7]) | Plant response rating, Spring Wheat (spring wheat [1]; [7])
30: Plant response rating, Jointed goatgra (jointed goatgrass; [5]) | Plant response rating Large crabgrass (large crabgrass; Rate 560 g/ha) | Plant response rating, Downy brortie (downy brome)
5: Plant response rating, Spring Wheat (spring wheat [2]; Rate 62 g/ha, 0 to 100 scale)
0: Plant response rating, Field violet (field violet; Rate 125 g/ha, 0 to 100 scale) | Plant response rating, Field violet (field violet; [3]) | Plant response rating, Field violet (field violet; [6]) | Plant response rating Large crabgrass (large crabgrass; Rate 140 g/ha) | Plant response rating Large crabgrass (large crabgrass; Rate 280 g/ha) | Plant response rating, Barley (winter) (winter barley; Rate 62 g/ha, 0 to 100 scale) | Plant response rating, Wild buckwheat (wild buckwheat; Rate 62 g/ha, 0 to 100 scale) | Plant response rating, Wild buckwheat (wild buckwheat; Rate 125 g/ha, 0 to 100 scale) | Plant response rating, Wild buckwheat (wild buckwheat; [3]) | Plant response rating, Wild buckwheat (wild buckwheat; [6]) | Plant response rating Common ragweed (common ragweed; Rate 140 g/ha) | Plant response rating Common ragweed (common ragweed; Rate 280 g/ha) | Plant response rating Common ragweed (common ragweed; Rate 560 g/ha) | Plant response rating Common ragweed (common ragweed; Rate 1120 g/ha) | Plant response rating, I. Ryegrass (Italian ryegrass; Rate 62 g/ha, 0 to 100 scale) | Plant response rating, I. Ryegrass (Italian ryegrass; [6]) | Plant response rating, Kochia (kochia; [5]) | Plant response rating, Redroot pigweed (redroot pigweed; Rate 62 g/ha, 0 to 100 scale) | Plant response rating, Redroot pigweed (redroot pigweed; Rate 125 g/ha, 0 to 100 scale) | Plant response rating, Redroot pigweed (redroot pigweed; [3]) | Plant response rating, Redroot pigweed (redroot pigweed; [6]) | Plant response rating, Downy brome (downy brome; Rate 62 g/ha) | Plant response rating, Downy brome (downy brome; Rate 125 g/ha) | Plant response rating, Spring Wheat (spring wheat [2]; Rate 125 g/ha, 0 to 100 scale)
60: Plant response rating, Field violet (field violet; Rate 62 g/ha, 0 to 100 scale) | Plant response rating, Downy brome (downy brome; Rate 500 g/ha, 0 no effect, 100 complete control)
40: Plant response rating, Spring Barley (spring barley; [5]) | Plant response rating, Wild mustard (wild mustard; [3]) | Plant response rating, Wild mustard (wild mustard; [6])
80: Plant response rating H. beggarticks (hairy beggarticks; Rate 140 g/ha) | Plant response rating, Spring Wheat (spring wheat [1]; Rate 250 g/ha, 0 to 100 scale)
15: Plant response rating, Spring Wheat (spring wheat [1]; [5])
85: Plant response rating, Kochia (kochia; Rate 250 g/ha, 0 to 100 scale)
75: Plant response rating, Spring Barley (spring barley; Rate 250 g/ha, 0 to 100 scale)
70: Plant response rating, Wild mustard (wild mustard; Rate 62 g/ha, 0 to 100 scale) | Plant response rating, I. Ryegrass (Italian ryegrass; [3]) | Plant response rating, Kochia (kochia; [7])
65: Plant response rating, Jointed goatgra (jointed goatgrass; [7])
90: Plant response rating Large crabgrass (large crabgrass; Rate 1120 g/ha) | Plant response rating H. beggarticks (hairy beggarticks; Rate 560 g/ha)
10: Plant response rating, Barley (winter) (winter barley; Rate 125 g/ha, 0 to 100 scale) | Plant response rating, Barley (winter) (winter barley; [3]) | Plant response rating, Barley (winter) (winter barley; [6]) | Plant response rating Cotton (cotton; Rate 140 g/ha) | Plant response rating, Spring Wheat (spring wheat [2]; [3]) | Plant response rating, Spring Wheat (spring wheat [2]; [6])
